# According to the OPERA property sets (Mansouri et al. 2018):
# Settings: not given
Structure (SMILES),melting point [°C],boiling point [°C],log10 vapour pressure (mmHg),ready biodegradability,log10 Henry constant (atm·m³/mol),log10 Koc (L/kg),log10 Koa
CCCCCCOc1ccccc1C(N)=O,71,–,–,–,–,–,–
CCCCCCCCCCCCCCCCCCCCCCCCCCCCCCCCCCC,75,490,-11.3,readily biodegradable,–,–,–
CCCCC(C#N)(Cn1ccnc1)c1ccccc1 (stereo not given),161,–,–,–,–,–,–
ClC(Cl)=C(Cl)C(Cl)Cl,–,185,–,–,–,–,–
CC(Cl)C[N+](=O)[O-] (stereo not given),–,172,–,–,–,–,–
CCOC(=O)CCCCC(=O)OCC,-19.8,245,-1.24,–,–,–,–
CCCCC1CCC(O)C(OC)C1 (stereo not given),–,–,–,readily biodegradable,–,–,–
C#CCBr,–,89,–,–,-2.95,–,–
CC(=O)CCCCO,–,227,–,–,–,–,–
CCOc1ccccc1C(=O)O,20.7,–,–,–,–,–,–
Cc1ccnc(N)n1,160,–,–,–,–,–,–
COc1ccc(C(Cl)=C(c2ccc(OC)cc2)c2ccc(OC)cc2)cc1,115,–,–,–,–,–,–
O=C(O)/C=C/C=C/C(=O)O,301,–,–,–,–,–,–
C[Si](C)(Oc1ccccc1)Oc1ccccc1,-23,–,–,–,–,–,–
O=C(O)Cc1cc(O)ccc1O,153,–,–,–,–,–,–
CC(=O)[C@@H]1CC[C@H]2[C@@H]3CCC4=CC(=O)CC[C@]4(C)[C@H]3C(=O)C[C@]12C,172,–,–,–,–,–,–
Cc1cccc(Cl)c1N,2,215,–,–,–,–,–
CCCCOc1ccc(C(=O)OCCN(CC)CC)cc1,146,–,–,–,–,–,–
C#C[C@]1(O)CC[C@H]2[C@@H]3CCC4=CC(=O)CC[C@@H]4[C@H]3CC[C@@]21C,204,–,–,–,–,–,–
O=C(Cl)c1ccc(C(=O)Cl)cc1,83.5,258,–,–,–,–,–
COC(=O)CCCCCCC(=O)OC,-3.1,268,–,–,–,–,–
CC(=O)C(N=Nc1ccc(-c2ccc(N=NC(C(C)=O)C(=O)Nc3ccccc3)c(Cl)c2)cc1Cl)C(=O)Nc1ccccc1 (stereo not given),–,–,–,not readily biodegradable,–,–,–
C=CC(=O)Oc1c(Br)cc(Cl)c2cccnc12,100,–,–,–,–,–,–
CC#Cc1ccccc1,–,183,–,–,–,–,–
CC(C)(C1CCCCC1)C1CCCCC1,15.6,286,–,–,–,–,–

Structure (SMILES),melting point [°C],boiling point [°C],log10 vapour pressure (mmHg),ready biodegradability,log10 Henry constant (atm·m³/mol),log10 Koc (L/kg),log10 Koa
CC(C)OC(=O)c1ccccc1,–,216,–,–,–,–,–
CCC1(CC)C(=O)C=CNC1=O,90.7,–,–,–,–,–,–
O=C(O)c1ccccc1-c1ccc(C(F)(F)F)cc1,170,–,–,–,–,–,–
COC(=O)C1(S(=O)(=O)c2ccc(Br)cc2)CCC1,95,–,–,–,–,–,–
O=C1c2cc3ccccc3cc2-c2ccc3ccccc3c21,214,–,–,–,–,–,–
O=C(O)C(c1ccc(Cl)cc1)c1ccc(Cl)cc1,168,–,–,–,–,–,–
FCF,-136,-51.6,4.1,–,–,–,–
Clc1cc(Cl)cc(-c2ccc(Cl)c(Cl)c2)c1,–,–,–,–,-4.05,–,–
O=S(=O)(Cl)c1ccc2ccccc2c1,81,–,–,–,–,–,–
CC(C)(N)CO,25.5,166,0,–,–,–,–
CCOC(=O)CBr,–,168,–,–,–,–,–
OC1CC=CCC1 (stereo not given),–,164,–,–,–,–,–
O=[N+]([O-])c1c(O)ccc2ccccc12,104,–,–,–,–,–,–
Cc1cccc(C)c1OCC(C)N (stereo not given),204,–,–,–,–,–,–
CC(=O)Oc1cccc2ccccc12,44.5,–,–,–,–,–,–
CC(C)(C)c1cc(C(C)(C)c2ccc(O)c(C(C)(C)C)c2)ccc1O,114,–,–,–,–,–,–
Nc1ccc(Cl)c(Cl)c1,72,272,-2.2,not readily biodegradable,–,2.29,–
Nc1ccc(C(=O)Oc2ccccc2)c(O)c1,153,–,–,–,–,–,–
O=C(O)C(Cl)(Cl)Cl,57.5,196,-1.22,not readily biodegradable,-7.87,0.3,–
CCO[Si](Cl)(OCC)OCC,-51,156,–,–,–,–,–
CC(C)C(C)N (stereo not given),-50,85.5,–,–,–,–,–
O=C(Nc1ccc(Br)cc1)c1cc(Br)cc(Br)c1O,227,–,–,–,–,–,–
CCC(=O)Nc1nc(C)c(Cl)s1,159,–,–,–,–,–,–
OC(c1ccc(Cl)cc1)(c1ccc(Cl)cc1)C(Cl)(Cl)Cl,77.5,–,-6.4,not readily biodegradable,–,3.7,–
CCP(=O)(c1ccccc1)c1ccccc1,122,–,–,–,–,–,–

Structure (SMILES),melting point [°C],boiling point [°C],log10 vapour pressure (mmHg),ready biodegradability,log10 Henry constant (atm·m³/mol),log10 Koc (L/kg),log10 Koa
c1ccc2c3c([nH]c2c1)CCCC3,120,328,–,–,–,–,–
C[C@@H]1C[C@@]2(C)[C@@H](CC[C@@H]3[C@@H]2CC[C@]2(C)[C@@H](O)CC[C@@H]32)CC1=O,151,–,–,–,–,–,–
CCOP(=S)(OCC)O/N=C(\C#N)c1ccccc1,6.1,–,-4.8,not readily biodegradable,–,–,–
O=C(C[N+](=O)[O-])Nc1ccccc1,94,–,–,–,–,–,–
C1=CC(c2ccc(C3CC=CCC3)cc2)CCC1 (stereo not given),–,–,–,not readily biodegradable,–,–,–
CC(C)CCCCC(C)C,-54.9,160,–,–,–,–,–
O=[N+]([O-])c1ccc(N=Nc2ccc(N(CCO)CCO)cc2Cl)cc1,190,–,–,–,–,–,–
O=C(O)c1c(Cl)cc(Cl)cc1Cl,162,–,–,–,–,–,–
CCCC(C)C1(CC)C(=O)N=C(O)NC1=O (stereo not given),130,–,–,–,–,–,–
c1c2c(cc3c1CCCC3)CCCC2,78,294,–,–,–,–,–
CC(=O)OCC(=O)[C@@]1(O)CC[C@H]2[C@@H]3CCC4=CC(=O)CC[C@]4(C)[C@H]3C(=O)C[C@@]21C,222,–,–,–,–,–,–
O=C(O)c1ccc(Cl)c(Cl)c1,–,–,–,not readily biodegradable,–,–,–
CC1(C)[C@H](C=C(Cl)Cl)[C@H]1C(=O)OCc1cccc(Oc2ccccc2)c1,–,–,–,not readily biodegradable,–,–,–
Nc1cc(S(N)(=O)=O)ccc1S(=O)(=O)CCCO,137,–,–,–,–,–,–
NC(=O)c1cccc(N)c1,116,–,–,–,–,–,–
Clc1cc2oc3cc(Cl)c(Cl)c(Cl)c3c2c(Cl)c1Cl,–,–,–,–,–,–,10.9
CC(=O)Nc1ccc(C)c(NS(=O)(=O)C(F)(F)F)c1,176,–,–,–,–,–,–
C=C(C)C(=O)OCCCCOC(=O)C(=C)C,226,–,–,–,–,–,–
c1ccc(Nc2ccc(-c3ccc(Nc4ccccc4)cc3)cc2)cc1,247,–,–,–,–,–,–
C#C[C@]1(O)C=C[C@H]2[C@@H]3CCC4=CC(=O)CC[C@@H]4[C@H]3CC[C@@]21CC,198,–,–,–,–,–,–
COC(=O)c1cccc([N+](=O)[O-])c1,78,–,–,–,–,–,–
CNC(=O)O/N=C/C(C)(C)S(C)=O (stereo not given),–,–,-4,–,–,0.56,–
Oc1cccc2c1CCCC2,70,266,–,–,–,–,–
FC(F)=C(Cl)Cl,-116,19,–,–,–,–,–
CCCC/C=C/CO,–,178,–,–,–,–,–

Structure (SMILES),melting point [°C],boiling point [°C],log10 vapour pressure (mmHg),ready biodegradability,log10 Henry constant (atm·m³/mol),log10 Koc (L/kg),log10 Koa
OCCCCCCCCCCCCCCO,85.8,–,–,–,–,–,–
CSc1ccccc1,–,193,-0.314,–,–,–,–
OCC(F)(F)C(F)(F)F,–,82,1.66,–,-4.65,–,–
CCOP(=S)(Oc1ccc(C#N)cc1)c1ccccc1 (stereo not given),83,–,–,–,–,–,–
O=C(O)c1ccc(O)c(Cl)c1,171,–,–,not readily biodegradable,–,–,–
N#Cc1ccccc1CCl,61,252,–,–,–,–,–
Cc1c([C@H](C)[C@@H]2NC[C@@H](C)C[C@H]2O)ccc2c1C[C@H]1[C@H]2CC=C2C[C@@H](O)CC[C@@]21C,206,–,–,–,–,–,–
CC(=O)Nc1ccc2c(c1)Cc1ccccc1-2,193,303,–,–,–,3.14,–
CCNc1ccccc1C,–,216,–,–,–,–,–
CC=CC(=O)O,72,185,-0.542,–,–,–,–
CC(C)=CCCc1ccoc1,–,186,–,–,–,–,–
CCOC(=O)CCCCl,–,184,–,–,–,–,–
c1ccc(C2CCNCC2)cc1,60.5,257,–,–,–,–,–
CC(=O)CC(=O)CC(C)=O,49,–,–,–,–,–,–
CCCc1ssc(=S)c1C,49,–,–,–,–,–,–
CC1COC(Cn2cncn2)(c2ccc(Oc3ccc(Cl)cc3)cc2Cl)O1 (stereo not given),76,–,-9.6,–,–,–,–
O=C1C(Br)=C(Br)C(=O)C(Br)=C1Br,293,–,–,–,–,–,–
"ClC1=C(Cl)[C@]2(Cl)[C@@H]3[C@@H]4C[C@@H]([C@H]5O[C@@H]45)[C@@H]3[C@@]1(Cl)C2(Cl)Cl (single isomer, unassigned)",202,330,-5.38,not readily biodegradable,-5.09,4.08,8.52
O=C(Cl)C(F)(F)C(F)(F)C(F)(F)F,–,38.5,–,–,–,–,–
CC1=CC[C@@H](C(C)C)CC1,–,174,–,–,–,–,–
CCCN=C=O,–,83.5,–,–,–,–,–
CCCC(=O)O[C@]1(C(=O)CCl)[C@@H](C)C[C@H]2[C@@H]3CCC4=CC(=O)C=C[C@]4(C)[C@@]3(F)C(=O)C[C@@]21C,95,–,–,–,–,–,–
Clc1ccc(-c2ccc(Cl)c(Cl)c2Cl)cc1Cl,–,–,-5.18,–,–,–,10
O=CC1CCC=CO1 (stereo not given),–,146,–,–,–,–,–
COC(=O)c1ccc(Cl)cc1,43.5,–,–,–,–,–,–

Structure (SMILES),melting point [°C],boiling point [°C],log10 vapour pressure (mmHg),ready biodegradability,log10 Henry constant (atm·m³/mol),log10 Koc (L/kg),log10 Koa
CCCCCOC(C)=O,-70.8,149,0.544,–,-3.41,–,4.12
O=[N+]([O-])c1ccccc1CO,74,270,–,–,–,–,–
CCNc1cccc(C)c1,–,221,–,–,–,–,–
CCCCCCCC(=O)CCCCCCC,43,291,-3.39,–,–,–,–
OCCCCCCO,45,250,-3.3,–,–,–,–
COCCOCCO,–,193,-0.602,–,–,–,–
Oc1c(O)c(Br)c(Br)c(Br)c1Br,191,–,–,–,–,–,–
CCCCCCCCCCCCN1CCCCCC1=O,-7,–,–,–,–,–,–
CC(CCl)[N+](=O)[O-] (stereo not given),–,172,–,–,–,–,–
CC(C)C1CCCCC1,-89.4,155,0.681,–,–,–,–
CC1(C)CCc2ccccc21,–,191,–,–,–,–,–
CCCNC(C)C,–,96.9,–,–,–,–,–
CCSC#N,-85.5,146,–,–,–,–,–
CCCc1ccc(C)cc1,-63.6,183,0.043,–,–,–,–
Cc1occc(=O)c1O,162,–,–,–,–,–,–
O=C(c1ccc(F)cc1)c1ccc(F)cc1,104,–,–,–,–,–,–
CC[C@H](C(N)=O)[C@@H](C)CC,114,–,–,–,–,–,–
O=C[C@H](O)[C@@H](O)[C@@H](O)[C@H](O)C(=O)O,166,–,–,–,–,–,–
OCCN1CC1,–,168,–,–,–,–,–
NC(=O)Cc1cccc2ccccc12,184,–,–,–,–,2,–
c1ncncn1,86,114,–,–,–,–,–
CC(C)OC(=O)C=CC(=O)OC(C)C,2.1,280,–,–,–,–,–

# Same assay, conditions: fish
Structure (SMILES),log10 BCF,log10 biotransformation half-life (days)
Nc1ccc(Cl)c(Cl)c1,1.11,-1.09
O=C(O)C(Cl)(Cl)Cl,0.23,–
OC(c1ccc(Cl)cc1)(c1ccc(Cl)cc1)C(Cl)(Cl)Cl,3.79,1.99
CCOP(=S)(OCC)O/N=C(\C#N)c1ccccc1,2.91,–
O=C(O)c1ccc(Cl)c(Cl)c1,0.36,–
"ClC1=C(Cl)[C@]2(Cl)[C@@H]3[C@@H]4C[C@@H]([C@H]5O[C@@H]45)[C@@H]3[C@@]1(Cl)C2(Cl)Cl (single isomer, unassigned)",3.91,1.65
Clc1ccc(-c2ccc(Cl)c(Cl)c2Cl)cc1Cl,–,2.06
Clc1ccc(-c2c(Cl)cc(Cl)c(Cl)c2Cl)cc1,–,1.84
